Results reported in ChEMBL document CHEMBL1201862, “PubChem BioAssay data set” (2004).
Where “and” joins values, the source holds several entries; their conditions need not be identical. Identical values can stand only once.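 Five concentrations, 48 hours, 96-well plates. Here, GI50 denotes the concentration required for 50% inhibition of growth.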 Calls of active or inactive are those of the source. Rule as the data show it: active = GI50 up to about 1.1 µM and inactive = higher.

Legend:
Test in all cases: NCI tumour cell line growth inhibition, 48 h
[1] = tested on: KM12
[2] = tested on: HOP-92
[3] = tested on: T47D
[4] = tested on: SK-MEL-2
[5] = tested on: PC-3
[6] = tested on: HCC 2998
[7] = tested on: TK-10
[8] = tested on: SK-MEL-5
[9] = tested on: UACC-257
[10] = tested on: SF-539
[11] = tested on: NCI-H226
[12] = tested on: UACC-62
[13] = tested on: SR
[14] = tested on: DU-145
[15] = tested on: SW-620
[16] = tested on: U-251
[17] = tested on: OVCAR-8
[18] = tested on: 786-0
[19] = tested on: MOLT-4
[20] = tested on: A498

Measured: GI50

CCOC(=O)Cc1ccc(Nc2nc3cc(F)c(F)cc3nc2C(=O)OCC)cc1
inactive: [1] > 100 µM | [2] 13.4 µM | [3] 35.1 µM | [4] 22.9 µM | [5] 49.5 µM | [6] 25.6 µM | [7] > 100 µM | [8] 34.5 µM | [9] 44.2 µM | [10] > 100 µM | [11] 69.3 µM | [12] 39.2 µM | [13] 26.5 µM | [14] 25.9 µM | [15] 43.7 µM | [16] 28.9 µM | [17] 29.2 µM | [18] > 100 µM | [19] 44 µM

Cc1ccc(S(=O)(=O)NC(=O)NC(CO)C(=O)O)cc1 (stereo not given)
inactive: [1] > 100 µM | [2] > 100 µM | [3] > 100 µM | [4] > 100 µM | [5] > 100 µM | [7] > 100 µM | [8] > 100 µM | [9] > 100 µM | [10] > 100 µM | [12] > 100 µM | [13] > 100 µM | [14] > 100 µM | [15] > 100 µM | [16] > 100 µM | [17] > 100 µM | [18] > 100 µM | [19] > 100 µM

Cc1ccc(/C=C2\CCCC(CN(C)C)C2=O)cc1 (stereo not given)
inactive: [1] 1.55 µM | [2] 1.88 µM | [3] 1.75 µM | [4] 4.76 µM | [5] 3.33 µM | [6] 14.2 µM | [7] 2.77 µM | [20] 14.3 µM | [8] 3.51 µM | [9] 1.88 µM | [10] 2.84 µM | [11] 2.56 µM | [12] 2.03 µM | [14] 10.2 µM | [15] 1.53 µM | [16] 13.5 µM | [17] 3.04 µM | [18] 1.63 µM | [19] 2.28 µM

COC(=O)n1c(C)c(C=O)c2ccc(OC)cc21
inactive: [1] 36.4 µM | [3] 72.3 µM | [4] 33.2 µM | [5] 31.9 µM | [6] 25.9 µM | [7] 22.8 µM | [8] 21.6 µM | [9] 45.2 µM | [10] 21.9 µM | [12] 21 µM | [13] 34.5 µM | [14] 41.1 µM | [17] 81.7 µM | [18] 36 µM | [19] 42.2 µM

COc1ccc(Nc2c[nH]c(=O)[nH]c2=O)cc1
inactive: [1] > 100 µM | [2] > 100 µM | [3] > 100 µM | [4] > 100 µM | [5] > 100 µM | [6] > 100 µM | [7] > 100 µM | [20] > 100 µM | [8] > 100 µM | [9] > 100 µM | [10] > 100 µM | [11] > 100 µM | [12] > 100 µM | [14] > 100 µM | [15] > 100 µM | [16] > 100 µM | [17] > 100 µM | [18] > 100 µM | [19] > 100 µM

COCOc1c(C(OCOC)c2cnc(Sc3ccccc3)n2C)ccc(OC)c1OC (stereo not given)
inactive: [1] > 100 µM | [2] > 100 µM | [3] 82.2 µM | [4] > 100 µM | [5] > 100 µM | [6] > 100 µM | [7] > 100 µM | [8] 63.8 µM | [9] 63.2 µM | [10] > 100 µM | [11] 76.7 µM | [12] > 100 µM | [13] 52.5 µM | [14] > 100 µM | [15] > 100 µM | [16] > 100 µM | [17] > 100 µM | [18] > 100 µM | [19] 87.1 µM

Cc1ccc(N(C(=O)Nc2ccc(F)c(Cl)c2)C2=NCC(C)S2)cc1 (stereo not given)
inactive: [1] 42 µM | [3] 33 µM | [4] 61.5 µM | [5] 46.7 µM | [7] 29.7 µM | [20] 34.3 µM | [8] 18.7 µM | [9] 53.2 µM | [10] 76.9 µM | [13] 40.2 µM | [14] > 100 µM | [15] 74 µM | [16] 50.6 µM | [17] 48.2 µM | [18] 57.8 µM | [19] 31.6 µM

N#CC1=CNc2sccc2S1(=O)=O
inactive: [1] 1.68 µM | [2] > 100 µM | [3] 72.9 µM | [4] > 100 µM | [5] > 100 µM | [6] 39.8 µM | [7] > 100 µM | [20] > 100 µM | [8] 76.4 µM | [9] > 100 µM | [10] > 100 µM | [11] > 100 µM | [12] > 100 µM | [14] > 100 µM | [15] > 100 µM | [16] > 100 µM | [17] > 100 µM | [18] > 100 µM | [19] 39.6 µM

CCOC(=O)NCC(=O)NCC(=O)NCC(N)=O
inactive: [1] > 100 µM | [3] > 100 µM | [4] > 100 µM | [5] > 100 µM | [6] > 100 µM | [7] > 100 µM | [8] > 100 µM | [9] > 100 µM | [11] > 100 µM | [12] > 100 µM | [13] > 100 µM | [14] > 100 µM | [15] > 100 µM | [16] > 100 µM | [17] > 100 µM | [18] > 100 µM | [19] > 100 µM

Cc1cccc2c1[C@]13OC(C)[C@]4(C)CC5OC(=O)[C@@]1(C)[C@@H]5[C@]34C(=O)O2 (stereo not given in full)
inactive: [1] > 100 µM | [3] > 100 µM | [4] > 100 µM | [5] > 100 µM | [6] > 100 µM | [7] > 100 µM | [20] > 100 µM | [8] > 100 µM | [9] > 100 µM | [10] > 100 µM | [11] > 100 µM | [12] > 100 µM | [13] > 100 µM | [14] > 100 µM | [15] > 100 µM | [16] > 100 µM | [17] > 100 µM | [18] > 100 µM | [19] > 100 µM

Cc1c2c(OCCCCN3CCN(c4ncccn4)CC3)nn(C)c(=O)c2c(C)n1-c1ccccc1
inactive: [1] 18.4 µM | [2] 16.4 µM | [3] 17.9 µM | [4] 19.6 µM | [5] 20.4 µM | [6] 20 µM | [7] 19 µM | [20] 16.9 µM | [8] 13.8 µM | [9] 18.7 µM | [10] 17.6 µM | [11] 20.7 µM | [12] 16.8 µM | [14] 17.1 µM | [15] 25.6 µM | [16] 18.1 µM | [17] 24.7 µM | [18] 18.1 µM | [19] 26.8 µM

Cc1nc(N)sc1/N=N/c1cc(Cl)c([N+](=O)[O-])cc1Cl
inactive: [1] 18.1 µM | [3] 35.9 µM | [4] 22.8 µM | [5] 18.7 µM | [7] 21.4 µM | [8] 4.22 µM | [9] 16.7 µM | [10] 17.3 µM | [11] 14 µM | [12] 16.4 µM | [13] 13.6 µM | [14] 13.6 µM | [15] 16.4 µM | [16] 16.3 µM | [17] 14.6 µM | [18] 19.7 µM | [19] 8.24 µM

COc1cc2c(cc1OC)C(=O)/C(=C/c1ccc([N+](=O)[O-])cc1)CC2
inactive: [1] > 10 µM | [2] > 10 µM | [3] > 10 µM | [4] > 10 µM | [5] > 10 µM | [6] > 10 µM | [7] > 10 µM | [8] > 10 µM | [9] > 10 µM | [10] > 10 µM | [11] > 10 µM | [12] > 10 µM | [13] > 10 µM | [14] > 10 µM | [15] > 10 µM | [16] > 10 µM | [17] > 10 µM | [18] > 10 µM | [19] > 10 µM

N#Cc1c(-c2ccccc2)c(C#N)c(=S)n(C2OC(CO)C(O)C(O)C2O)c1N (stereo not given)
inactive: [1] > 100 µM | [3] 52.6 µM and 68.5 µM | [4] > 100 µM | [5] > 100 µM | [6] > 100 µM and 96.4 µM | [20] 38.7 µM and 44.2 µM | [8] 71.6 µM | [9] > 100 µM | [10] > 100 µM | [11] > 100 µM | [12] > 100 µM | [13] > 100 µM | [14] > 100 µM | [15] > 100 µM | [16] > 100 µM | [17] > 100 µM | [18] > 100 µM

O/N=C1\CCc2nonc2\C1=N/Nc1ccccc1
inactive: [1] > 100 µM | [2] > 100 µM | [3] 57.3 µM | [4] > 100 µM | [5] > 100 µM | [6] > 100 µM | [7] > 100 µM | [8] > 100 µM | [9] > 100 µM | [10] > 100 µM | [11] 35.6 µM | [12] > 100 µM | [13] > 100 µM | [14] > 100 µM | [15] > 100 µM | [16] > 100 µM | [17] > 100 µM | [18] > 100 µM | [19] > 100 µM
